Here are results for 4 compounds from ChEMBL document CHEMBL1201862, “PubChem BioAssay data set” (2004).

Common to all, as to assay: NCI anticancer screen, dose series, 48 h
In test [1] the test system is SNB-75.
The test system of test [2] is Malme-3M.
For test [3], the system named is IGROV-1.
Test [4] deals with NCI/ADR-RES.
The test system of test [5] is HT-29.
Test [6] relates to A549.
In test [7] the test system is DU-145.
In test [8] the test system is SW-620.
Test [9] concerns OVCAR-3.
The subject of test [10] is SK-MEL-5.
The subject of test [11] is MDA-MB-231.
Test [12] deals with SR.
Test [13] relates to ACHN.
The subject of test [14] is SF-268.
For test [15], the system named is NCI-H226.
Test [16] has as its system HCC 2998.
Test [17] relates to OVCAR-4.
The subject of test [18] is SF-295.
Test [19] has as its system TK-10.
Test [20] deals with COLO 205.

The structures appear in SMILES notation.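 Five concentrations, 48 hours, 96-well plates. Here, GI50 denotes the concentration required for 50% inhibition of growth.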 Activity calls are given as the source filed them. Rule as the data show it: active = GI50 up to about 1.1 µM and inactive = higher.

With `ClCC[N+]12CC[N+](CCCl)(CC1)C2`, the GI50 in test [1], in test [2], in [3], in [4], in test [5] and in test [6] was > 100 µM (inactive) in each case. Moreover, the GI50 in test [7] is > 100 µM (inactive); in test [8] it was > 100 µM (inactive); in test [9], > 100 µM (inactive); in test [10], > 100 µM (inactive); in test [11], > 100 µM (inactive); in test [12], 55 µM (inactive). Besides, the GI50 in test [13], in test [14], in test [15], in [16], in test [17] and in [18] was > 100 µM (inactive) in each case. The GI50 in [19] and in test [20] was > 100 µM (inactive) throughout.

Take `CNC(=O)/C=C/C1=CN2C(=O)c3ccc(C)c(O)c3NC(OC)C2C1` (centres undefined): the GI50 in test [1] was 0.0151 µM (active); in test [2], 0.0132 µM (active); in test [3] it was 0.016 µM (active); in test [4], < 0.01 µM (active); in test [5], < 0.0143 µM (active); in [6], < 0.0149 µM (active). Besides, the GI50 was < 0.01 µM (active) in [7]; < 0.0164 µM (active) in [8]; < 0.0134 µM (active) in test [9]; 0.0116 µM (active) in [10]; < 0.01 µM (active) in [11]; < 0.0156 µM (active) in test [12]. In addition, the GI50 in [13] is 0.0142 µM (active); in test [14], < 0.0154 µM (active); in test [15], 0.0141 µM (active); in test [16] it was < 0.0126 µM (active); in [17], < 0.0132 µM (active); in [18] it was 0.0168 µM (active). In addition, the figures for the GI50 in test [19] and in test [20] were 0.0142 µM (active) and 0.0136 µM (active), respectively.

As to `CC(=O)O[C@H]1CC[C@@]2(C)C(=CC[C@@H]3[C@@H]2CC[C@]2(C)c4c(C)n[nH]c4C[C@@H]32)C1`, the GI50 was 12.2 µM (inactive) in [1]; 3.75 µM (inactive) in test [2]; 20.8 µM (inactive) in test [3]; 26.1 µM (inactive) in test [4]; 10.3 µM (inactive) in [5]; 14.2 µM (inactive) in test [6]. Also, the GI50 is 14.2 µM (inactive) in test [7]; 16.9 µM (inactive) in test [8]; 12.2 µM (inactive) in [9]; 13.4 µM (inactive) in [10]; 21.1 µM (inactive) in [11]; 22.3 µM (inactive) in test [12]. Besides, the GI50 in test [13] was 17.9 µM (inactive); in test [14], 23.4 µM (inactive); in test [15], 16.5 µM (inactive); in test [16] it was 18.5 µM (inactive); in [17], 15.7 µM (inactive); in test [18], 20.4 µM (inactive). Also, the GI50 is 19.2 µM (inactive) in test [19] and 14.7 µM (inactive) in test [20].

For `COC(=O)C1=NN2c3ccccc3CN([C@@H](C)c3ccccc3)C(=O)[C@H]2[C@@H]1C`, the GI50 in test [1] was 27.2 µM (inactive); in [2], 38.4 µM (inactive); in test [4], 26.1 µM (inactive); in test [5], 31.8 µM (inactive); in test [6] it was 29.4 µM (inactive); in [7] it was 47.5 µM (inactive). The GI50 in [8] is 43.1 µM (inactive); in test [9], 27 µM (inactive); in test [10] it was 12.6 µM (inactive); in test [11], 83 µM (inactive); in [12] it was 25.5 µM (inactive); in [13] it was 39 µM (inactive). For the same compound, the GI50 in [14] is 40.3 µM (inactive); in test [15], 25.9 µM (inactive); in [16], 24.7 µM (inactive); in test [17], 28.9 µM (inactive); in test [18] it was 35 µM (inactive); in test [19] it was 50.1 µM (inactive). In addition, in [20], the GI50 was 18.1 µM (inactive).
